Laboratory results from patent US20250352500A1, “USE OF PHENOLIC ACIDS DERIVATIVES IN TREATING ISCHEMIC STROKE” (LANZHOU UNIVERSITY, priority 2022, published 2025).

Assays:
Assay type in all cases: in vivo, male C57/BL mice
[1] = system: TNF-α; test: RT-qPCR of TNF-α mRNA in brain tissue; details: 72 h, three days of administration, compound 2 100 mg/kg, compound 1 50 mg/kg, P<0.05
Description: (§1) Grouping and administration method: Male C57/BL mice weighing 23±1 g were randomly divided into sham operation group (SHAM), model group (MCAO), compound 2 group (100 mg/kg), and compound 1 group (50 mg/kg), with 10 mice in each group. Mice in the SHAM group underwent vascular isolation, but no […] was administered, and no treatment was given before or after surgery. The model group mice were constructed with MCAO models and were not treated before and after surgery. The treatment group was treated with compound 2 or compound 1 on the basis of the model group. Mice with a neurological score of 0 after reperfusion and those that died before 72 hours post-surgery were excluded. […]
(§2) To investigate the effect of compounds on the expression of inflammatory factors after ischemia-reperfusion, this study used immunofluorescence experiments to observe the expression of TNF-α, IL-1β, IL-6, iNOS, and COX2 proteins in brain tissue. […] The concentrations of TNF-α, IL-1β, and IL-6 in brain homogenate were detected by enzyme-linked immunosorbent assay (ELISA), and the expression level of TNF-α protein in brain tissue was detected by Western blot.
(§3) After 72 hours of ischemia-reperfusion, the mRNA expression levels of TNF-α, IL-1β, IL-6, iNOS, and COX2 in brain tissue were detected and analyzed by RT-qPCR. […]

[2] = system: COX2; test: RT-qPCR of COX2 mRNA in brain tissue; details: 72 h, three days of administration, compound 2 100 mg/kg, compound 1 50 mg/kg, P<0.001
Description: as §1, §2, §3

[3] = system: TNF-α; test: ELISA of TNF-α in brain homogenate; details: 72 h, three days of administration, compound 2 100 mg/kg, compound 1 50 mg/kg
Description: as §1, §2
After 72 hours of ischemia-reperfusion, the expression levels of inflammatory factors TNF-α, IL-1β, and IL-6 in the mouse brain homogenate were detected.

[4] = system: iba1; test: iba1 protein Western blot in brain tissue; details: for iba1 protein expression reduced compared with MCAO group: three days of administration, compound 2 100 mg/kg, compound 1 50 mg/kg
Description: (§4) Grouping and administration method: Male C57/BL mice weighing 23±1 g were randomly divided into sham operation group (SHAM), model group (MCAO), compound 2 group (100 mg/kg), and compound 1 group (50 mg/kg), with 10 mice in each group. Mice in the SHAM group underwent vascular isolation, but no […] was administered, and no treatment was given before or after surgery. The model group mice were constructed with MCAO models and were not treated before and after surgery. The treatment group was treated with compound 2 or compound 1 on the basis of the model group. Mice with a neurological score of 0 after reperfusion and those that died before 72 hours post-surgery were excluded. The administration time for animal behavior tests was seven times at 0 h, 1 day, 2 days, 3 days, 4 days, 5 days, and 6 days after reperfusion, while the administration time for other experiments was three times at 0 h, 1 day, and 2 days after reperfusion. The drug was administered through the tail vein, and the sham operation group and model group were given equal amounts of saline.
The expression level of the specific protein iba1 in microglia in brain tissues was detected by Western blot. (A) The representative WB images of iba1 protein expression in brain tissues of the sham operation group (SHAM), model group (MCAO), compound 2 group, and compound 1 group are shown in FIG. 8A, and the quantitative statistical results are shown in FIG. 8B. […] Compared with the MCAO group, the expression of iba1 protein decreased three days after administration of compound 1. Compared with the compound 1 group, the expression level of iba1 protein in the compound 2 group decreased. In this experiment, β-actin was used as the internal reference protein. n=3, data are presented as mean±SEM, analyzed with one-way ANOVA, and subjected to Tukey's HSD test. *P<0.05, **P<0.01, ***P<0.001. ^#P<0.05, ^##P<0.01, ^###P<0.001. * indicates comparison with the SHAM group, ^# indicates a comparison with the Compound 2 group.

[5] = system: HIF-1α; test: HIF-1α protein Western blot in brain tissue; details: 72 h; for HIF-1α protein expression reduced compared with MCAO model group: three days of administration, compound 2 100 mg/kg, compound 1 50 mg/kg
Description: as §4
HIF-1α is a sensitive regulator of oxygen homeostasis, rapidly inducing its expression after hypoxia-ischemia. It plays a wide range of roles in the pathophysiology of stroke, including neuronal survival, neuroinflammation, angiogenesis, glucose metabolism, and blood-brain barrier regulation. It can not only produce specific sensations in the case of hypoxia, but also facilitate the maintenance of oxygen homeostasis in the body. […]
After 72 hours of ischemia-reperfusion, the expression level of HIF-1α protein in brain tissue was detected by Western blot. […] In this experiment, β-actin was used as the internal reference protein. n=3, data are mean±SEM, analyzed using one-way ANOVA and Tukey's HSD test. *P<0.05, **P<0.01, ***P<0.001. ^#P<0.05, ^##P<0.01, ^###P<0.001. * indicates a comparison with the SHAM group, ^# indicates a comparison with the compound 2 group.

[6] = system: iba1; test: iba1 immunofluorescence in brain tissue (microglia); details: 72 h ischemia-reperfusion, three days of administration; compound 2 100 mg/kg, compound 1 50 mg/kg; MCAO group 303±23; mean±SEM, n=3
Description: as §1
Microglia are resident phagocytic cells in the nervous system and are the primary defense system for stress and injury in central nervous cells. […] To investigate whether the compound has an effect on the activation and proliferation of microglia in the ischemia-reperfusion model, this study used immunofluorescence experiments to detect the fluorescence expression of iba1 in the brain tissues of the sham operation group (SHAM), model group (MCAO), compound 2 group, and compound 1 group. Then, the expression level of iba1 in microglia in brain tissue was detected by Western blot. […]

[7] = compound 2 100 mg/kg vs compound 1 50 mg/kg

SMILES | TNF-α mRNA expression compared with MCAO group [1] | COX2 mRNA expression compared with MCAO group [2] | Decrease in TNF-α expression compared with MCAO group [3] | iba1 protein expression reduced compared with MCAO group [4] | HIF-1α protein expression reduced compared with MCAO model group [5] [%] | Number of iba1-positive cells [6] | iba1 protein expression level compared with the compound 1 group [4, 7] | HIF-1α protein expression level compared with the compound 1 group [5, 7]
O=C(O)c1cc(O)ccc1O [compound 1] | significantly reduced | significantly reduced | reduced to varying degrees | decreased | 46±10 | 200±12 /mm^2 |  | 
O=C(O)c1cc(OP(=O)(O)O)ccc1OP(=O)(O)O [compound 2] | significantly reduced | significantly reduced | 40±10% | 50±12% | 53±10 | 148±40 /mm^2 | decreased | significantly reduced
